# Assay results as given in US12414974B2, “Materials and methods for treating cancer” (priority 2017, dated 2025).
# System: GBM39 cells
# Test: MV growth kinetics (virus production, titration on Vero cells)
# Type: cell-based, human
# Method: MV strains and virus propagation. Generation and characterization of MV strains expressing human iodide symporter (MV-NIS), human carcinoembryonic antigen (MV-CEA) and green fluorescent protein (MV-GFP) has been described elsewhere (see, e.g., Dingli et al. 2004 Blood 103:1641-1646; Peng et al. 2002 Cancer Res 62:4656-4662; Duprex et al. 1999 J Virol 73:9568-9575). Viruses were propagated on Vero cells and viral stocks were prepared by repeated freezing-thawing and stored frozen at −80° C. MV titers were determined in tissue culture infectious doses 50% (TCID50) per ml by titration on Vero cells described elsewhere (see, e.g., Iankov et al. 2009 Mol Ther 17:1395-1403). High grade purified viral stocks from supernatant released viruses were prepared as described elsewhere (see, e.g., Langfield et al. 2011 Methods Mol Biol 737:345-366).
# MV growth kinetics. Growth kinetics of MV in primary GBM cells was determined by titration on Vero cells for the cell-associated virus at different time points post infection with MV-NIS. Briefly, the 4×10^5 cells were inoculated at a MOI of 0.1 with MV-NIS and incubated in 6-well cell culture plates (Falcon). […] Wells positive for syncytia were counted at 72 hours and virus titers were calculated as described above. […]
compound,measurement,setting,value
"N#CC[C@H](C1CCCC1)n1cc(-c2ncnc3[nH]ccc23)cn1 [Jakafi, Ruxolitinib]",increase of MV-NIS virus production vs control,"GBM39, 3 μM for 48 hours prior to infection, MV-NIS MOI 0.1, 96 hours",~1000 fold
same,time of addition still sufficient to restore MV production,"GBM39, 3 μM, MV MOI 0.1, virus production 48 hours post-infection",up to 12 hours post-infection
